Assay results published in patent publication US10111874B2, “Combination therapies for treatment of cancer” (Araxes Pharma LLC, priority 2014, dated 2018).

Target: T1, KRAS G12C 1-169, his-tagged protein, GDP-loaded (Homo sapiens, UniProt P01116, G12C)
T1 construct: KRAS G12C 1-169, his-tagged protein, GDP-loaded
Assay: Biochemical assay: covalent binding to KRAS G12C analyzed by mass spectrometry; also: test concentration or dose not given here
Conditions: compounds 1-47, measured at 24 h

T1 sequence (P01116 1-169 isoform P01116-2 G12C): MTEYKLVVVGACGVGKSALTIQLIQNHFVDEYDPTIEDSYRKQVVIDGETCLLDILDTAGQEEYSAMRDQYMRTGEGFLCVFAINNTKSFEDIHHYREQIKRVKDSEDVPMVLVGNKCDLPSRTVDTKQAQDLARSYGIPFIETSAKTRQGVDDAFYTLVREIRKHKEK

SMILES	Binding %
C=CC(=O)N1CCN(c2nc(OC)nc3cc(Cl)c(-c4ccc(Cl)cc4)cc23)CC1 [Compound I-43, 1-(4-(7-chloro-6-(4-chlorophenyl)-2-methoxyquinazolin-4-yl)piperazin-1-yl)prop-2-en-1-one]	+++ (+++indicates binding activity greater than 50% and up to 75%)
C=CC(=O)N1CCN(c2ncnc3cc(Cl)c(-c4ccc(C#N)cc4)cc23)CC1 [Compound I-16, 4-(4-(4-acryloylpiperazin-1-yl)-7-chloroquinazolin-6-yl)benzonitrile]	++ (++indicates binding activity greater than 25% and up to 50%)
C=CC(=O)N1CCC(c2ncnc3cc(Cl)c(-c4ccccc4Cl)cc23)CC1 [Compound I-36, 1-(4-(7-chloro-6-(2-chlorophenyl)quinazolin-4-yl)piperidin-1-yl)prop-2-en-1-one]	+ (+indicates binding activity from 5% to 25%)

Same assay, conditions: compounds 48-246, measured at 2 h

SMILES	Binding %
C=CC(=O)N1CCN(c2ncnc3cc(Cl)c(-c4ccc(Cl)cc4)cc23)C[C@@H]1C#N [Compound I-58, (R)-1-acryloyl-4-(7-chloro-6-(4-chlorophenyl)quinazolin-4-yl)piperazine-2-carbonitrile]	+++ (+++indicates binding activity greater than 50% and up to 75%)
C=CC(=O)N1CCN(c2ncnc3cc(-c4cccc(O)c4)c(Cl)cc23)CC1 [Compound I-75, 1-(4-(6-chloro-7-(3-hydroxyphenyl)quinazolin-4-yl)piperazin-1-yl)prop-2-en-1-one]	+ (+indicates binding activity from 5% to 25%)
C=CC(=O)N1CCN(c2c(C#N)cnc3cc(-c4ccccc4C(F)(F)F)c(Cl)cc23)CC1 [Compound I-173, 4-(4-acryloylpiperazin-1-yl)-6-chloro-7-(2-(trifluoromethyl)phenyl) quinoline-3-carbonitrile]	++++ (++++indicates binding activity greater than 75%)
C=CC(=O)N1CCN(c2ncnc3cc(-c4ccc(F)cc4O)c(Cl)cc23)CC1 [Compound I-133, 1-0(4-(6-chloro-7-(4-fluoro-2-hydroxyphenyl)quinazolin-4-yl)piperazin-1-yl)prop-2-en-1-one]	++ (++indicates binding activity greater than 25% and up to 50%)
C=CC(=O)N1CCN(c2ncnc3cc(Cl)c(-c4ccc(Cl)cc4)cc23)C[C@@H]1CO [Compound I-65, (R)-1-(4-(7-chloro-6-(4-chlorophenyl)quinazolin-4-yl)-2-(hydroxymethyl)piperazin-1-yl)prop-2-en-1-one]	+ (+indicates binding activity from 5% to 25%)
C=CC(=O)N1CCN(c2ncnc3cc(-c4ccc(O)cc4C(F)(F)F)c(Cl)cc23)CC1 [Compound I-169, 1-(4-(6-chloro-7-(4-hydroxy-2-(trifluoromethyl)phenyl)quinazolin-4-yl)piperazin-1-yl)prop-2-en-1-one]	+++ (+++indicates binding activity greater than 50% and up to 75%)
N#C/C(=C\c1cncs1)C(=O)N1CCN(c2ncnc3cc(-c4ccccc4F)c(Cl)cc23)CC1 [Compound I-245, (E)-2-(4-(6-chloro-7-(2-fluorophenyl)quinazolin-4-yl)piperazine-1-carbonyl)-3-(thiazol-5-yl)acrylonitrile]	+ (+indicates binding activity from 5% to 25%)
C=CC(=O)N1CCN(c2ncnc3cc(-c4ccccc4C4(C#N)CC4)c(Cl)cc23)CC1 [Compound I-175, 1-(2-(4-(4-acryloylpiperazin-1-yl)-6-chloroquinazolin-7-yl)phenyl)cyclopropanecarbonitrile]	+++ (+++indicates binding activity greater than 50% and up to 75%)
C=CC(=O)N1CCN(c2c(C#N)cnc3cc(-c4cccc5ccccc45)c(Cl)cc23)CC1 [Compound I-171, 4-(4-acryloylpiperazin-1-yl)-6-chloro-7-(naphthalen-1-yl)quinolin-3-carbonitrile]	+++ (+++indicates binding activity greater than 50% and up to 75%)
C=CC(=O)N1CCN(c2ncnc3cc(Cl)c(-c4ccc(Cl)cc4)cc23)C[C@@H]1C(N)=O [Compound I-64, (R)-1-acryloyl-4-(7-chloro-6-(4-chlorophenyl)quinazolin-4-yl)piperazine-2-carboxamide]	++ (++indicates binding activity greater than 25% and up to 50%)
C=CC(=O)N1CCN(c2ncnc3cc(C4CC4)c(Cl)cc23)CC1 [Compound I-68, 1-(4-(6-chloro-7-cyclopropylquinazolin-4-yl)piperazin-1-yl)prop-2-en-1-one]	+ (+indicates binding activity from 5% to 25%)
C=CC(=O)N1CCN(c2nccc3cc(-c4ccccc4)c(Cl)cc23)CC1 [Compound I-88, 1-(4-(7-chloro-6-phenylisoquinolin-1-yl)piperazin-1-yl)prop-2-en-1-one]	+ (+indicates binding activity from 5% to 25%)
C=CC(=O)N1CCN(c2ncnc3cc(-c4ccccc4C#N)c(Cl)cc23)CC1 [Compound I-105, 2-(4-(4-acryloylpiperazin-1-yl)-6-chloroquinazolin-7-yl)benzonitrile]	+ (+indicates binding activity from 5% to 25%)

Same assay, conditions: compounds 247-342, measured at 30 min

SMILES	Binding %
CC(C)/C=C(\C#N)C(=O)N1CCN(c2ncnc3c(F)c(-c4c(O)cccc4F)c(Cl)cc23)CC1 [Compound I-282, (E)-2-(4-(6-chloro-8-fluoro-7-(2-fluoro-6-hydroxyphenyl)quinazolin-4-yl)piperazine-1-carbonyl)-4-methylpent-2-enenitrile]	+++ (+++indicates binding activity greater than 50% and up to 75%)
Cc1coc(/C=C(\C#N)C(=O)N2CCN(c3ncnc4cc(-c5ccccc5F)c(Cl)cc34)CC2)n1 [Compound I-259, (E)-2-(4-(6-chloro-7-(2-fluorophenyl)quinazolin-4-yl)piperazine-1-carbonyl)-3-(4-methyloxazol-2-yl)acrylonitrile]	+++ (+++indicates binding activity greater than 50% and up to 75%)
C=CC(=O)N1CCN(c2ncnc3c(F)c(-c4c(C)cccc4OC)c(Cl)cc23)CC1 [Compound I-287, 1-(4-(6-chloro-8-fluoro-7-(2-methoxy-6-methylphenyl)quinazolin-4-yl)piperazin-1-yl)prop-2-en-1-one]	++ (++indicates binding activity greater than 25% and up to 50%)

Same assay, conditions: determined at 2 hrs

SMILES	Binding %
C=CC(=O)N1CC(N2CCN(C(=O)C3CCCN3c3cc(C4CC4)c(Cl)cc3OC)CC2)C1 (centres unmarked) [II-73, 1-(3-(4-(1-(4-chloro-5-cyclopropyl-2-methoxyphenyl)-pyrrolidine-2-carbonyl)piperazin-1-yl)azetidin-1-yl)prop-2-en-1-one]	+ (+indicates binding activity from 5% to 20%)
C=CC(=O)N1CC(N2CCN(C(=O)/C=C/c3cc(C4CC4)c(Cl)cc3O)CC2)C1 [II-62, (E)-1-(4-(1-Acryloylazetidin-3-yl)piperazin-1-yl)-3-(4-chloro-5-cyclopropyl-2-hydroxyphenyl)prop-2-en-1-one]	+ (+indicates binding activity from 5% to 20%)

Same assay, conditions: determined at 24 hrs

SMILES	Binding %
C=CC(=O)N1CC(N2CCN(C(=O)c3cc(-c4cc(Cl)ccc4Cl)c(Cl)cc3O)CC2)C1 [II-48, 1-(3-(4-(2′,5′,6-trichloro-4-hydroxybiphenyl-carbonyl)piperazin-1-yl)azetidin-1-yl)prop-2-en-1-one]	++ (++indicates binding activity greater than 15% and up to 25%)
C=CC(=O)N1CC(N2CCN(C(=O)CNc3cc4ccccc4cc3O)CC2)C1 [II-43, 1-(3-(4-(2-(3-hydroxynaphthalen-2-ylamino)acetyl)-piperazin-1-yl)azetidin-1-yl)prop-2-en-1-one]	++++ (++++indicates binding activity greater than 50%)
